In patent US20230135635A1, “INHIBITORS OF ULK1/2 AND METHODS OF USING SAME” (SALK INSTITUTE FOR BIOLOGICAL STUDIES, priority 2020, published 2023) one finds IC50 data, which are given here for 19 compounds.

The target in one assay is T1, NanoLuc®-ULK1 Fusion (Homo sapiens, UniProt O75385).
T1 construct: host or cells: HEK293T
T1 sequence (O75385 1-1050): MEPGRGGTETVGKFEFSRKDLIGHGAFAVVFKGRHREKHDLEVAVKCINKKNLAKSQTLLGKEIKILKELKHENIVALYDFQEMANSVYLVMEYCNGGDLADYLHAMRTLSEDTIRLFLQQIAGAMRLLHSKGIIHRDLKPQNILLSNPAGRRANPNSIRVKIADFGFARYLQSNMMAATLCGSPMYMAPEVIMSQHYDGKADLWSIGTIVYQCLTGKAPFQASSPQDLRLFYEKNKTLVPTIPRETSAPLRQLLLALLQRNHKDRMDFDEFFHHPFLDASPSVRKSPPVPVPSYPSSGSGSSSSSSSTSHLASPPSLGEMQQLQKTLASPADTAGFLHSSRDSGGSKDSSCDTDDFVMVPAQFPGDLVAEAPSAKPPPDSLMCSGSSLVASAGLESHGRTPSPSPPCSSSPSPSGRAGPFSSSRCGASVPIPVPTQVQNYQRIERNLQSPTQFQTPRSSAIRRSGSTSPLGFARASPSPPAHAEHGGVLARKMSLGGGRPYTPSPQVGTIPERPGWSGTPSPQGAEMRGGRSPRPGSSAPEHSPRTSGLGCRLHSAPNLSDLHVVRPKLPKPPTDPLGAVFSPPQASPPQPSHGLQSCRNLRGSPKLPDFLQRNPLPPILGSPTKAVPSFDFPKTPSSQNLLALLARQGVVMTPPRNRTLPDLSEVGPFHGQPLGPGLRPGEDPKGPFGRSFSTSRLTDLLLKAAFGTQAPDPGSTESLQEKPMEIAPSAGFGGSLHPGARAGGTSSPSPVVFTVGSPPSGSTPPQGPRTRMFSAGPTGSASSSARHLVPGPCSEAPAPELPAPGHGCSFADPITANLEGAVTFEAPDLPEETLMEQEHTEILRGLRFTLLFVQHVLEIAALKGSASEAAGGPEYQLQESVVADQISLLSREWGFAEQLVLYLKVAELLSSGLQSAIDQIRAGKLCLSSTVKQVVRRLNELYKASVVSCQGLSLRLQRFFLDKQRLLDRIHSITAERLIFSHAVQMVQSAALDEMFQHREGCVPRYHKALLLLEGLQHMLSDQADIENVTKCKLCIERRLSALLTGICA
Nature of the assay: ULK1 NanoBRET assay in HEK293T cells. It is filed as cell-based. Here is the method:
IC50s were also measured by ULK1 NanoBRET assay according to the following protocol: Human embryonic kidney cells (HEK293T) were transfected with NanoLuc®-ULK1 Fusion Vector (Promega #NV2211) using jetPRIME transfection reagent (Polyplus Transfection #114-15). Following 24 h, cells were trypsinized and resuspended in Opti-MEM® I (1×), Reduced Serum Medium (Gibco, #11058-021). Approximately, 7,000 cells per well (in 34 μL total volume) were replated into non-binding surface 384 well plates. Complete NanoBRET 20× Tracer K-5 reagent was prepared according to the manufacturer's directions and 2 μL were added to each well of the 384 plate (assay plate). The assay plate was mixed on an orbital shaker for 15 seconds at 700 rpm. Compounds were serially diluted at 200× final concentration in 100% DMSO, then diluted to 10× final concentration in assay media (Opti-MEM® I, Reduced Serum Medium). Next, 4 μL 10× test compounds were added to each well of the assay plate, followed by mixing at 700 rpm for 15 seconds. The assay plate was incubated for 2 h in a 37 C incubator with 5% CO2 and then equilibrated to RT for 15 min. The 3× Complete Substrate plus Inhibitor Solution was prepared according to the manufacturer's directions with a concentration of Extracellular NanoLuc® Inhibitor of 60 μM to be used at a working concentration of […]. The 3× Complete Substrate plus Inhibitor Solution was mixed and 20 μL per well was added to the assay plate and incubated at RT for 2-3 min. Donor emission wavelength (450 nm) and acceptor emission wavelength (610 nm) were measured using an assay compatible luminometer (see manufacturer's specifications).
Background: Bioluminescence resonance energy transfer reports proximity on the nanometre scale.

For assay [1], the target named is T2, recombinant human ULK1 protein (1-649) (Homo sapiens, UniProt O75385).
T2 construct: recombinant human ULK1 protein (1-649, SignalChem #U01-11G); purchased SignalChem U01-11G
T2 sequence (O75385 1-649): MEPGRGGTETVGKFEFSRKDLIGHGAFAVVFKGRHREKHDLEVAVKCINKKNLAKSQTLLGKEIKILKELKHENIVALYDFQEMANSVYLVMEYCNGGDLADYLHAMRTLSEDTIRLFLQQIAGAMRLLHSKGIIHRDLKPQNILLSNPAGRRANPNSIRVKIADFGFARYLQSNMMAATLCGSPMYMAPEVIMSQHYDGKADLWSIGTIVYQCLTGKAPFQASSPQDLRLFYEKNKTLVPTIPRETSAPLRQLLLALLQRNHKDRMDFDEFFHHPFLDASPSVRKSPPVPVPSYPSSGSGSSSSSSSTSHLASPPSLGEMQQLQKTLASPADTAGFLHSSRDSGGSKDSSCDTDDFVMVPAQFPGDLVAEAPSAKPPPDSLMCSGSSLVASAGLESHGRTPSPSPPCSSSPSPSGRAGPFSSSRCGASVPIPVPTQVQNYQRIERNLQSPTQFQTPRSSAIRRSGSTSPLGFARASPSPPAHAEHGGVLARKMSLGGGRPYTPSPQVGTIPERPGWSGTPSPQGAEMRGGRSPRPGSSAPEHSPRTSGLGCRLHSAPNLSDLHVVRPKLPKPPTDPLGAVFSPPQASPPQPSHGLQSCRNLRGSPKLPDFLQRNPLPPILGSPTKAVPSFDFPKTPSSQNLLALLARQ
Nature of the assay: ULK1 inhibition assay (ADP Glo). Format: biochemical. The procedure, abridged: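 Recombinant ULK1 (2 ug/mL) phosphorylated myelin basic protein (80 ug/mL) at 25 uM ATP; ADP formed was detected by ADP-Glo after 1 h. Compounds ran in triplicate, 16-dose 3-fold serial dilution from 30 uM, to give IC50.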

The mark [2] stands for this setting: Table 1, 25 uM ATP, MBP substrate, one hour.

As for `CNC(=O)c1ccccc1Nc1nc(Nc2cc(OC)c(OC)c(OC)c2)ncc1C#N` [Compound E9, 2-((5-cyano-2-((3,4,5-trimethoxyphenyl)amino)pyrimidin-4-yl)amino)-N-methylbenzamide], the concentration for half-maximal inhibition (IC50) – broadly, the concentration at which inhibition is half-maximal – against NanoLuc®-ULK1 Fusion (Table 3) is under 100 nM.
With `C#CCC(=O)N1CCc2cc(Nc3ncc(C(F)(F)F)c(NC4CC4)n3)ccc2C1` [Compound A84], the IC50 in assay [1] (setting [2]) is 1 to 10 nM; at NanoLuc®-ULK1 Fusion (Table 1, 2 h incubation), over 100 nM.
In the same order, the values of `CNC(=O)c1ccccc1Nc1nc(Nc2ccc3c(c2)CCN(CCOC)C3)ncc1Cl` [Compound A117, 2-((5-Chloro-2-((2-(2-methoxyethyl)-1,2,3,4-tetrahydroisoquinolin-6-yl)amino)pyrimidin-4-yl)amino)-N-methylbenzamide] are 1 to 10 nM and under 100 nM.
At NanoLuc®-ULK1 Fusion (Table 3), `CNC(=O)c1ccccc1Nc1nc(Nc2cc(OC)c(OC)c(OC)c2)ncc1C` [Compound E11, N-Methyl-2-((5-methyl-2-((3,4,5-trimethoxyphenyl)amino)pyrimidin-4-yl)amino)benzamide] registered an IC50 of over 100 nM.
With `CNC(=O)c1ccccc1Nc1nc(Nc2ccc3c(c2)OCCO3)ncc1Br` [Compound E4, 2-((5-Bromo-2-((2,3-dihydrobenzo[b][1,4]dioxin-6-yl)amino)pyrimidin-4-yl)amino)-N-methylbenzamide], the values for the IC50 (in assay [1] (Table 3); against NanoLuc®-ULK1 Fusion (Table 3)) were 5 to 100 nM and over 100 nM, respectively.
The compound `CNC(=O)c1ccccc1Nc1nc(Nc2cc(OC)c(OC)c(OC)c2)ncc1F` [Compound E12, 2-((5-Fluoro-2-((3,4,5-trimethoxyphenyl)amino)pyrimidin-4-yl)amino)-N-methylbenzamide] gave an IC50 at NanoLuc®-ULK1 Fusion (Table 3) of over 100 nM.
The same measure, in the same setting: the figure for `CNC(=O)c1ccccc1Nc1nc(Nc2cc(OC)c(OC)c(OC)c2)ncc1I` [Compound E13, 2-((5-iodo-2-((3,4,5-trimethoxyphenyl)amino)pyrimidin-4-yl)amino)-N-methylbenzamide] is under 100 nM.
`CNC(=O)c1ccccc1Nc1nc(Nc2ccc3c(c2)CCN(CCOC)C3)ncc1Br` [Compound A118, 2-((5-Bromo-2-((2-(2-methoxyethyl)-1,2,3,4-tetrahydroisoquinolin-6-yl)amino)pyrimidin-4-yl)amino)-N-methylbenzamide]: the IC50 was 1 to 10 nM in assay [1] (setting [2]) and under 100 nM at NanoLuc®-ULK1 Fusion (Table 1, 2 h incubation).
On to `CNC(=O)c1ccccc1Nc1nc(Nc2ccc3c(c2)OCCO3)ncc1C(F)(F)F` [Compound E7, 2-((2-((2,3-Dihydrobenzo[b][1,4]dioxin-6-yl)amino)-5-(trifluoromethyl)pyrimidin-4-yl)amino)-N-methylbenzamide], for which the figures for the IC50 (in assay [1] (Table 3); on NanoLuc®-ULK1 Fusion (Table 3)) were 5 to 100 nM and over 100 nM, respectively.
As to `CNC(=O)c1ccccc1Nc1nc(Nc2ccc3c(c2)CCNC3)ncc1C(F)(F)F` [Compound A120, N-Methyl-2-((2-((1,2,3,4-tetrahydroisoquinolin-6-yl)amino)-5-(trifluoromethyl)pyrimidin-4-yl)amino)benzamide], the IC50 was 1 to 10 nM in assay [1] (setting [2]) and under 100 nM on NanoLuc®-ULK1 Fusion (Table 1, 2 h incubation).
Compound `CNC(=O)c1ccccc1Nc1nc(Nc2cc(OC)c(OC)c(OC)c2)ncc1C1CC1` [Compound E10, 2-((5-Cyclopropyl-2-((3,4,5-trimethoxyphenyl)amino)pyrimidin-4-yl)amino)-N-methyl-benzamide] showed an IC50 at NanoLuc®-ULK1 Fusion (Table 3) of over 100 nM.
With `CNC(=O)c1ccccc1Nc1nc(Nc2ccc3c(c2)OCO3)ncc1C(F)(F)F` [Compound E6, 2-((2-(Benzo[d][1,3]dioxol-5-ylamino)-5-(trifluoromethyl)pyrimidin-4-yl)amino)-N-methyl benzamide], the IC50 was 5 to 100 nM in assay [1] (Table 3) and over 100 nM against NanoLuc®-ULK1 Fusion (Table 3).
`FC(F)(F)c1cnc(Nc2ccc3c(c2)CCN(Cc2c[nH]cn2)C3)nc1NC1CC1` [Compound A51]: the IC50 was under 1 nM in assay [1] (setting [2]) and under 100 nM on NanoLuc®-ULK1 Fusion (Table 1, 2 h incubation).
In the same order, the values of `O=C(CN1CCc2cc(Nc3ncc(C(F)(F)F)c(NC4CC4)n3)ccc2C1)N1CCOCC1` [Compound A47] are under 1 nM and under 100 nM.
With `COCCN1CCc2cc(Nc3ncc(C(F)(F)F)c(NC(C)C)n3)ccc2C1` [Compound A122, N^4-Isopropyl-N^2-(2-(2-methoxyethyl)-1,2,3,4-tetrahydroisoquinolin-6-yl)-5-(trifluoromethyl)pyrimidine-2,4-diamine], the IC50 is 1 to 10 nM in assay [1] (setting [2]) and under 100 nM against NanoLuc®-ULK1 Fusion (Table 1, 2 h incubation).
On to `CC(=O)N1CCc2cc(Nc3ncc(C(F)(F)F)c(NC4CC4)n3)ccc2C1` [Compound A19], for which the IC50 in assay [1] (setting [2]) is under 1 nM; at NanoLuc®-ULK1 Fusion (Table 1, 2 h incubation), under 100 nM.
In the same order, the values of `FC(F)(F)c1cnc(Nc2ccc3c(c2)CNC3)nc1NC1CC1` [Compound A55] are under 1 nM and under 100 nM.
As to `CNC(=O)c1ccccc1Nc1nc(Nc2ccc3c(c2)OCO3)ncc1Br` [Compound E5, 2-((2-(Benzo[d][1,3]dioxol-5-ylamino)-5-bromopyrimidin-4-yl)amino)-N-methylbenzamide], the IC50 in assay [1] (Table 3) was 5 to 100 nM; on NanoLuc®-ULK1 Fusion (Table 3), over 100 nM.
For the compound `CNC(=O)c1ccccc1Nc1nc(Nc2ccc3c(c2)CCN(CCOC)C3)ncc1C(F)(F)F` [Compound A119, 2-((2-((2-(2-Methoxyethyl)-1,2,3,4-tetrahydroisoquinolin-6-yl)amino)-5-(trifluoromethyl)pyrimidin-4-yl)amino)-N-methylbenzamide], the IC50 in assay [1] (setting [2]) was 1 to 10 nM; on NanoLuc®-ULK1 Fusion (Table 1, 2 h incubation), under 100 nM.
